Measured values as given in patent US12486239B2, “Benzotriazole compound, light absorber, and resin composition” (MITSUI CHEMICALS, INC., priority 2019, dated 2025).

Experiments:
Assay type in all cases: physicochemical
[1] = Maximum absorption wavelength and gram absorption coefficient, toluene solution 0.01 g/L (first embodiment); settings: optical path length 10 mm
Procedure: The maximum absorption wavelength of the benzotriazole compound of the first embodiment is measured using a spectrophotometer (for example, Shimadzu Spectrophotometer UV-1600 manufactured by Shimadzu Corporation) at an optical path length of 10 mm using a toluene solution having a concentration of 0.01 g/L.
In Examples according to the first embodiment, the maximum absorption wavelength and the gram absorption coefficient of the benzotriazole compound were measured using a Shimadzu Spectrophotometer UV-1600 manufactured by Shimadzu Corporation at an optical path length of 10 mm using a toluene solution having a concentration of 0.01 g/L.

[2] = Heat resistance: TG5% decomposition temperature; settings: nitrogen atmosphere, heating rate 10° C./min; for T-5% by mass: Table 2; for Decomposition temperature (Tg-5% by mass): Table 6
Procedure: In each Example and Comparative Example, the decomposition temperature was measured by the following method.
Using a thermal analyzer Rigaku ThermoPlus Evo TG8120, the TG5% decomposition temperature (T-5% by mass) was measured under a nitrogen atmosphere at a heating rate of 10° C./min and a temperature range of from room temperature to 500° C.
The higher the T-5% by mass, the higher the heat resistance.
The decomposition temperature of the benzotriazole compound obtained in each Example and Comparative Example was measured by the following method.

[3] = Solubility to various organic solvents; settings: room temperature; for Solubility to various organic solvents: PGMEA / Solubility to various organic solvents: Ethyl acetate / Solubility to various organic solvents: MEK / Solubility to various organic solvents: MMA / Solubility to various organic solvents: Toluene: Table 1
Procedure: As Comparative Example 1, the solubility of TINUVIN326 (manufactured by BASF Japan Ltd.) represented by the following Formula (TI) was measured by the following method.
To 0.5 g of the benzotriazole compound, the various organic solvents shown in Table 1 were added such that the total mass was about 10 g, the mixture was irradiated with ultrasonic waves for about 30 minutes, and thereafter stirred at room temperature for 2 hours to prepare a dispersion of about 10% by mass.
The dispersion was filtered through a membrane filter (0.2 μm), and the obtained residue was dried in a dryer at 60° C. for 1 hour, and then the mass of the residue was measured.
The solubility of the benzotriazole compound to the solvent was expressed by the following formula. Solubility (% by mass)=(W0−W1)/W0
W0 is the mass of the benzotriazole compound before the treatment, and W1 is the mass of the residue after drying (that is, the dissolution residue of the benzotriazole compound). In a case in which no residue remained on the filter, the solubility was determined as 5% by mass or more.
The solubility of the benzotriazole compound obtained in each Example and Comparative Example was measured by the following method.
To 0.5 g of the benzotriazole compound, the various organic solvents shown in Table 6 were added such that the total mass was about 10 g, the mixture was irradiated with ultrasonic waves for about 30 minutes, and thereafter stirred at room temperature for 2 hours to prepare a dispersion of about 10% by mass.

CCC(C)(C)C(=O)Nc1ccc(-n2nc3ccc(Cl)cc3n2)c(O)c1 [Compound (59)]
gram absorption coefficient [1]: 8.40×10^4 g/mL·cm | maximum absorption [1]: 359.0 nm | T-5% by mass [2]: 309.1 °C | Solubility to various organic solvents: PGMEA ([3]; PGMEA): 5 or more % by mass | Solubility to various organic solvents: Ethyl acetate ([3]; ethyl acetate): 5 or more % by mass | Solubility to various organic solvents: MEK ([3]; methyl ethyl ketone): 5 or more % by mass | Solubility to various organic solvents: MMA ([3]; methyl methacrylate): 5 or more % by mass | Solubility to various organic solvents: Toluene ([3]; toluene): 2 % by mass

CCCCC(CC)C(=O)Nc1ccc(-n2nc3ccc(Cl)cc3n2)c(O)c1 (centres unmarked) [Compound (56)]
gram absorption coefficient [1]: 7.48×10^4 g/mL·cm | maximum absorption [1]: 359.0 nm | T-5% by mass [2]: 312.7 °C | Solubility to various organic solvents: PGMEA ([3]; PGMEA): 0.8 % by mass | Solubility to various organic solvents: Ethyl acetate ([3]; ethyl acetate): 0.8 % by mass | Solubility to various organic solvents: MEK ([3]; methyl ethyl ketone): 2 % by mass | Solubility to various organic solvents: MMA ([3]; methyl methacrylate): 1.2 % by mass | Solubility to various organic solvents: Toluene ([3]; toluene): 0.2 % by mass

CCNc1cc(O)c(-n2nc3ccc(OC)cc3n2)cc1C [Compound (111)]
gram absorption coefficient [1]: 1.04×10^5 g/mL·cm | maximum absorption [1]: 378.5 nm | T-5% by mass [2]: 252.6 °C | Solubility to various organic solvents: PGMEA ([3]; PGMEA): 3 % by mass | Solubility to various organic solvents: Ethyl acetate ([3]; ethyl acetate): 5 % by mass | Solubility to various organic solvents: MEK ([3]; methyl ethyl ketone): 10 % by mass | Solubility to various organic solvents: MMA ([3]; methyl methacrylate): 4 % by mass | Solubility to various organic solvents: Toluene ([3]; toluene): 1 % by mass

CCCCCCCCSc1ccc2nn(-c3ccc(NC(=O)CCCCCC)cc3O)nc2c1 [Compound (54)]
gram absorption coefficient [1]: 7.10×10^4 g/mL·cm | maximum absorption [1]: 371.0 nm | T-5% by mass [2]: 359.7 °C | Solubility to various organic solvents: PGMEA ([3]; PGMEA): 0.3 % by mass | Solubility to various organic solvents: Ethyl acetate ([3]; ethyl acetate): 0.3 % by mass | Solubility to various organic solvents: MEK ([3]; methyl ethyl ketone): 1 % by mass | Solubility to various organic solvents: MMA ([3]; methyl methacrylate): 0.5 % by mass | Solubility to various organic solvents: Toluene ([3]; toluene): 0.3 % by mass

Oc1cc(NC2CCCCC2)ccc1-n1nc2ccc(Cl)cc2n1 [Compound (4)]
gram absorption coefficient [1]: 9.76×10^4 g/mL·cm | maximum absorption [1]: 389.5 nm

CCCCC(CC)C(=O)Nc1ccc(-n2nc3ccc(Sc4ccc(C(C)(C)C)cc4)cc3n2)c(O)c1 (centres unmarked) [Compound (58)]
gram absorption coefficient [1]: 6.61×10^4 g/mL·cm | maximum absorption [1]: 371.5 nm | T-5% by mass [2]: 374.7 °C | Solubility to various organic solvents: PGMEA ([3]; PGMEA): 2 % by mass | Solubility to various organic solvents: Ethyl acetate ([3]; ethyl acetate): 3 % by mass | Solubility to various organic solvents: MEK ([3]; methyl ethyl ketone): 5 or more % by mass | Solubility to various organic solvents: MMA ([3]; methyl methacrylate): 5 or more % by mass | Solubility to various organic solvents: Toluene ([3]; toluene): 2 % by mass

CC(C)(C)c1ccc(CSc2ccc3nn(-c4ccc(NC(=O)C5CCCCC5)cc4O)nc3c2)cc1 [Compound (104)]
gram absorption coefficient [1]: 6.90×10^4 g/mL·cm | maximum absorption [1]: 371.0 nm | T-5% by mass [2]: 313.1 °C

CC(=O)Nc1ccc(-n2nc3ccc(Cl)cc3n2)c(O)c1 [Compound (102)]
gram absorption coefficient [1]: 5.19×10^4 g/mL·cm | maximum absorption [1]: 347.0 nm

Cc1cc(-n2nc3ccc(Cl)cc3n2)c(O)c(C(C)(C)C)c1 [TINUVIN326, 2-(5-chloro-2-benzotriazol)-6-tert-butyl-p-cresol, reference compound]
T-5% by mass [2]: 219.2 °C | Decomposition temperature (Tg-5% by mass) [2]: 219.2 °C | Decomposition temperature (Tg-5% by mass) ([2]; listed as Comparative Example 1C): lower than that of Examples | Solubility to various organic solvents: PGMEA ([3]; PGMEA): 1 % by mass | Solubility to various organic solvents: Ethyl acetate ([3]; ethyl acetate): 3 % by mass | Solubility to various organic solvents: MEK ([3]; methyl ethyl ketone): 3 % by mass | Solubility to various organic solvents: MMA ([3]; methyl methacrylate): 5 % by mass | Solubility to various organic solvents: Toluene ([3]; toluene): 5 or more % by mass | Solubility: PGMEA ([3]; Table 6, PGMEA): 1 % by mass | Solubility: EA ([3]; Table 6, ethyl acetate): 3 % by mass | Solubility: MEK ([3]; Table 6, methyl ethyl ketone): 3 % by mass | Solubility: MMA ([3]; Table 6, methyl methacrylate): 5 % by mass | Solubility: Toluene ([3]; Table 6, toluene): 5≤ % by mass

O=C1CCc2cc(-n3nc4ccc(Cl)cc4n3)c(O)cc2N1 [Compound (105)]
gram absorption coefficient [1]: 7.28×10^4 g/mL·cm | maximum absorption [1]: 365.5 nm

CCCCC(CC)C(=O)Nc1ccc(-n2nc3ccc(Sc4ccccc4)cc3n2)c(O)c1 (centres unmarked) [Compound (112)]
gram absorption coefficient [1]: 7.47×10^4 g/mL·cm | maximum absorption [1]: 370.0 nm | T-5% by mass [2]: 368.0 °C | Solubility to various organic solvents: PGMEA ([3]; PGMEA): 2 or more % by mass | Solubility to various organic solvents: Ethyl acetate ([3]; ethyl acetate): 3 or more % by mass | Solubility to various organic solvents: MEK ([3]; methyl ethyl ketone): 10 or more % by mass | Solubility to various organic solvents: MMA ([3]; methyl methacrylate): 4 or more % by mass | Solubility to various organic solvents: Toluene ([3]; toluene): 1 or more % by mass

CCCCCNc1ccc(-n2nc3ccc(Cl)cc3n2)c(O)c1 [Compound (3)]
gram absorption coefficient [1]: 9.77×10^4 g/mL·cm | maximum absorption [1]: 387 nm

CCCCC(CC)C(=O)Nc1ccc(-n2nc3ccc(Sc4ccc(C)cc4)cc3n2)c(O)c1 (centres unmarked) [Compound (113)]
gram absorption coefficient [1]: 6.98×10^4 g/mL·cm | maximum absorption [1]: 371.5 nm | T-5% by mass [2]: 365.5 °C | Solubility to various organic solvents: PGMEA ([3]; PGMEA): 1 or more % by mass | Solubility to various organic solvents: Ethyl acetate ([3]; ethyl acetate): 1 or more % by mass | Solubility to various organic solvents: MEK ([3]; methyl ethyl ketone): 2.5 or more % by mass | Solubility to various organic solvents: MMA ([3]; methyl methacrylate): 2 or more % by mass | Solubility to various organic solvents: Toluene ([3]; toluene): 0.5 or more % by mass

O=C(Nc1ccc(-n2nc3ccc(Cl)cc3n2)c(O)c1)C1CCCCC1 [Compound (103)]
gram absorption coefficient [1]: 8.48×10^4 g/mL·cm | maximum absorption [1]: 359.0 nm | T-5% by mass [2]: 335.7 °C

O=C(Nc1ccc(-n2nc3ccc(Cl)cc3n2)c(O)c1)c1ccccc1 [Compound (61)]
gram absorption coefficient [1]: 9.37×10^4 g/mL·cm | maximum absorption [1]: 360.0 nm

CCCCCCC(=O)N(c1ccccc1)c1ccc(-n2nc3ccc(Cl)cc3n2)c(O)c1 [Compound (22)]
gram absorption coefficient [1]: 6.1×10^4 g/mL·cm | maximum absorption [1]: 355 nm

CCN(CC)C(=O)Nc1ccc(-n2nc3ccc(Cl)cc3n2)c(O)c1 [Compound (81)]
gram absorption coefficient [1]: 1.07×10^5 g/mL·cm | maximum absorption [1]: 372.5 nm | T-5% by mass [2]: 230.1 °C

CCCCCCC(=O)Nc1ccc(-n2nc3ccc(Sc4ccc(C(C)(C)C)cc4)cc3n2)c(O)c1 [Compound (55)]
gram absorption coefficient [1]: 6.9×10^4 g/mL·cm | maximum absorption [1]: 371.0 nm | T-5% by mass [2]: 359.4 °C | Solubility to various organic solvents: PGMEA ([3]; PGMEA): 5 or more % by mass | Solubility to various organic solvents: Ethyl acetate ([3]; ethyl acetate): 5 % by mass | Solubility to various organic solvents: MEK ([3]; methyl ethyl ketone): 5 % by mass | Solubility to various organic solvents: MMA ([3]; methyl methacrylate): 5 or more % by mass | Solubility to various organic solvents: Toluene ([3]; toluene): 2 % by mass
